From PMC12301304 (Frontiers in Pharmacology, 2025)

Tests used:
[1] = biological target: CYP2e1 (Rattus norvegicus, UniProt P05182); settings: in vivo
Experimental: The effect of the Zhicaowu–Hezi combination on CYP450 enzymes in rats was evaluated by examining the pharmacokinetics of theophylline (CYP1a2), metoprolol (CYP2d2), bupropion (CYP2b1), omeprazole (CYP2c13), chlorzoxazone (CYP2e1), testosterone (CYP3a1), and diclofenac (CYP2c11).
The collected blood was placed in sodium heparin-treated centrifuge tubes and centrifuged at 4°C for 10 min at 3,000 RPM. […] After 10 min of sedimentation, the supernatant was extracted through a 0.22-μm microporous membrane, 20 μL of which was injected into HPLC. The pharmacokinetic parameters of each probe drug were calculated using the non-atrial compartment model in Drug and Statistics software (DAS, 3.0; Shanghai, China).

[2] = system: rat liver; assay type: in vivo; settings: rats after final administration, H&E, Figure 7
Experimental: After the final administration, all rats were euthanized, and blood and liver samples were collected. The levels of biochemical indicators ALT, AST and ALP in the blood were detected according to the kit instruction. The liver histopathology was analyzed by H&E staining. Briefly, liver tissues were fixed in 10% paraformaldehyde (for over 24 h, 4°C), paraffin-embedded, and sectioned into 5-µm slices). […]

[3] = biological target: T1, CYP2c13 (Rattus norvegicus, UniProt P20814); design: from tissue; host or cells: live male Sprague-Dawley rats (whole animal, mainly liver); settings: in vivo
T1 sequence (P20814 1-490): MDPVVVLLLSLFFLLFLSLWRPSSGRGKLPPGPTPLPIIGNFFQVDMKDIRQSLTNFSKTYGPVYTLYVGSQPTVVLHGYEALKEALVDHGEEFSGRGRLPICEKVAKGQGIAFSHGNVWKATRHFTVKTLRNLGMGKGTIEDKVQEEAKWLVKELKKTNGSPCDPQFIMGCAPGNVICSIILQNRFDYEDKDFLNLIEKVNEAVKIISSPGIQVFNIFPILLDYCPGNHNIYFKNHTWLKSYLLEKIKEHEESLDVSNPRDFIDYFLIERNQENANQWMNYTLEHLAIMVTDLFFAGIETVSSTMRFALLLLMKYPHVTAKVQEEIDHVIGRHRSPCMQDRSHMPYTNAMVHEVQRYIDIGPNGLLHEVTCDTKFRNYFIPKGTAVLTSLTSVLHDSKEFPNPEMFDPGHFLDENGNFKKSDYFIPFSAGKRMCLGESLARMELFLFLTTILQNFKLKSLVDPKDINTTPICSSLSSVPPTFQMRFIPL

[4] = biological target: T2, CYP2c11 (Rattus norvegicus, UniProt P08683); design: from tissue; host or cells: live male Sprague-Dawley rats (whole animal, mainly liver); settings: in vivo
T2 sequence (P08683 1-500): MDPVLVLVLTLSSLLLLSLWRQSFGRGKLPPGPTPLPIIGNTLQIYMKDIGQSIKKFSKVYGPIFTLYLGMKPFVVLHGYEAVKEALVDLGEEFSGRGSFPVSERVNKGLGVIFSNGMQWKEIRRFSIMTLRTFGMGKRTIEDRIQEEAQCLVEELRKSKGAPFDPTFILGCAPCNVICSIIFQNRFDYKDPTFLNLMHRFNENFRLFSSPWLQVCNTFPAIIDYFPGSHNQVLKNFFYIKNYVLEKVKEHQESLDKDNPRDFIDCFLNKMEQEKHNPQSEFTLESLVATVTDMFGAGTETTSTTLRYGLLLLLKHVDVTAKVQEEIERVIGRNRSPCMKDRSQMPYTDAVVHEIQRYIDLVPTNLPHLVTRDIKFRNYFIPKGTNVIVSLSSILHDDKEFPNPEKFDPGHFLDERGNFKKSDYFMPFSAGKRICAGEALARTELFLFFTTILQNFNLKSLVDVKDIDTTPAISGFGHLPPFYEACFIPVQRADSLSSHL

[5] = biological target: T3, CYP3a1 (Rattus norvegicus, UniProt P04800); design: from tissue; host or cells: live male Sprague-Dawley rats (whole animal, liver and intestine); settings: in vivo
T3 sequence (P04800 1-504): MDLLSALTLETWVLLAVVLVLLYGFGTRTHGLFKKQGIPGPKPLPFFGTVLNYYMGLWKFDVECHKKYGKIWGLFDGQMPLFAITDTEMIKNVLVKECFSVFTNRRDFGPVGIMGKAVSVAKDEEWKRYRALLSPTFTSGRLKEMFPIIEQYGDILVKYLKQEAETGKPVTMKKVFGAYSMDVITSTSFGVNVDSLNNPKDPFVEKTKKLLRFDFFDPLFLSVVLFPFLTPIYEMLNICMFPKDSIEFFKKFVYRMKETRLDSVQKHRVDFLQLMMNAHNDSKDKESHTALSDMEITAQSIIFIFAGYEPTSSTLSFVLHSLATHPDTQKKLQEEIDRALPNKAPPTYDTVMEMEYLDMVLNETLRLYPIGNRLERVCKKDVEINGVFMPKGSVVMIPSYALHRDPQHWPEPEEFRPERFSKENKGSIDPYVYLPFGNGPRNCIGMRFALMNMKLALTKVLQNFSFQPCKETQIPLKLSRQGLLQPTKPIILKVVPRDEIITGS

CYP2e1, sequence (P05182 whole entry): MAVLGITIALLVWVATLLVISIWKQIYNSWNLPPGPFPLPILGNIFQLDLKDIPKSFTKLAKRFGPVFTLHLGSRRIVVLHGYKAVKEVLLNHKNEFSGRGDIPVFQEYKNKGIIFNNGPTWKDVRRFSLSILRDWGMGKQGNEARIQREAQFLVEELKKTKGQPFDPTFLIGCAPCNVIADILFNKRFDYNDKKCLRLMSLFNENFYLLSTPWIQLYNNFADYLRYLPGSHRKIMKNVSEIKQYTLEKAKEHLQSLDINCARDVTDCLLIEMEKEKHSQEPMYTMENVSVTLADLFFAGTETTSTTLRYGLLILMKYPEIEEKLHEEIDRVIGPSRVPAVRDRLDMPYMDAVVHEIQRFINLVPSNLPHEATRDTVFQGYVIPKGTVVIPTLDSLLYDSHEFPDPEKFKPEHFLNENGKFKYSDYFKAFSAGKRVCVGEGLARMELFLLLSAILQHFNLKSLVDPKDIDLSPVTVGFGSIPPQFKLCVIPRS

Which results are given for `CCC1(c2ccccc2)C(=O)NC(=O)NC1=O` [P, phenobarbital sodium]?
chlorzoxazone AUC(0-t) [1]: 32754 ± 4037 ng·h/mL; chlorzoxazone AUC(0-∞) [1]: 47632 ± 6051 ng·h/mL; chlorzoxazone CLz/F [1]: 13.4061 ± 1.1103 mL/min/kg; chlorzoxazone Cmax [1]: 3543 ± 431 ng/mL; chlorzoxazone t1/2 z [1]: 13.368 ± 1.308 h; liver histopathology finding [2]: Scattered cellular edema; omeprazole AUC(0-t) [3]: 3040 ± 177 ng·h/mL; omeprazole AUC(0-∞) [3]: 3187 ± 239 ng·h/mL; omeprazole CLz/F [3]: 3,028.688 ± 253.193 mL/h/kg; omeprazole Cmax [3]: 535 ± 63 ng/mL; omeprazole t1/2 z [3]: 2.761 ± 0.227 h; diclofenac AUC(0-t) [4]: 3978 ± 385 ng·h/mL; diclofenac AUC(0-∞) [4]: 4057 ± 343 ng·h/mL; diclofenac CLz/F [4]: 3,071.310 ± 519.261 mL/h/kg; diclofenac Cmax [4]: 735 ± 68 ng/mL; diclofenac t1/2 z [4]: 3.342 ± 0.425 h; testosterone AUC(0-t) [5]: 756 ± 48 ng·h/mL; testosterone AUC(0-∞) [5]: 907 ± 93 ng·h/mL; testosterone CLz/F [5]: 6,479.436 ± 351.908 mL/h/kg; testosterone Cmax [5]: 107 ± 15 ng/mL; testosterone t1/2 z [5]: 7.394 ± 0.958 h
